Measurements taken from US20130096302A1, “PYRROLOPYRAZINES AND PYRAZOLOPYRAZINES USEFUL AS INHIBITORS OF PROTEIN KINASES” (priority 2005, published 2013).
pKi: −log10 of the molar value.

Target: T1, full length Aurora-A (AA 1-403) (Homo sapiens, UniProt O14965)
T1 sequence (O14965 1-403): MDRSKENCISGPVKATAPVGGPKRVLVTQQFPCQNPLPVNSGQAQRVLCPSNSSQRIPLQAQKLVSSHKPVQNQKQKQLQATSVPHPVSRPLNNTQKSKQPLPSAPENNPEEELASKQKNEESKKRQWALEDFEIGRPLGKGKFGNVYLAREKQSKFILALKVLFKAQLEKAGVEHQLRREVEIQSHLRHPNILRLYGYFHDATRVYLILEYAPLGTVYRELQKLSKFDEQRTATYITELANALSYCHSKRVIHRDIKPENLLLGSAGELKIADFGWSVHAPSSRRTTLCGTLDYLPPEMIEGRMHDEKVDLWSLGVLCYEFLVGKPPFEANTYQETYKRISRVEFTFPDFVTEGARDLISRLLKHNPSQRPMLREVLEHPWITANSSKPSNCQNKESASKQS
Test: AuroraA Inhibition Assay (coupled enzyme system)
Format: biochemical
Conditions: standard coupled enzyme system, 200 μM ATP, 800 μM peptide (LRRASLG), 35 nM Aurora-A, 30° C.
Description: Compounds were screened for their ability to inhibit full length Aurora-A (AA 1-403) activity using a standard coupled enzyme system (Fox et al., Protein Sci., 7, pp. 2249 (1998)). Reactions were carried out in a solution containing 100 mM HEPES (pH 7.5), 10 mM MgCl2, 25 mM NaCl, 300 μM NADH, 1 mM DTT and 3% DMSO. Final substrate concentrations in the assay were 200 μM ATP (Sigma Chemicals, St Louis, Mo.) and 800 μM peptide (LRRASLG, American Peptide, Sunnyvale, Calif.). Reactions were carried out at 30° C. and 35 nM Aurora-A. Final concentrations of the components of the coupled enzyme system were 2.5 mM phosphoenolpyruvate, 200 μM NADH, 60 μg/ml pyruvate kinase and 20 μg/ml lactate dehydrogenase.
An assay stock buffer solution was prepared containing all of the reagents listed above with the exception of ATP and the test compound of interest. The assay stock buffer solution (60 μl) was incubated in a 96 well plate with 2 μl of the test compound of interest at final concentrations spanning 0.002 μM to 30 μM at 30° C. for 10 min. […] Rates of reaction were obtained using a Molecular Devices Spectramax plate reader (Sunnyvale, Calif.) over 10 min at 30° C. The Ki values were determined from the rate data as a function of inhibitor concentration using computerized nonlinear regression (Prism 3.0, Graphpad Software, San Diego, Calif.).

Row | SMILES | pKi
1 | Clc1cnc2[nH]cc(-c3cccc(Br)c3)c2n1 [Compound I-1, 7-(3-Bromo-phenyl)-2-chloro-5H-pyrrolo[2,3-b]pyrazine] | > 6.70
2 | C[C@H](Nc1nc(-c2c[nH]c3ncc(Cl)nc23)ncc1F)c1ccc(F)cc1 [Compound I-28] | > 6.70
